Structures are written as SMILES. Converted amounts (≈) assume the structure as drawn.

The text below walks through data of ChEMBL document CHEMBL4138241, “Synthesis and in vitro evaluation of novel substituted isatin-propylene-1H-1,2,3-triazole-4-methylene-moxifloxacin hybrids for their anti-mycobacterial activities” (Eur J Med Chem, 2018).

For data set [1], the system named is Mycobacterium tuberculosis. As to the kind of experiment: Antimycobacterial activity against Mycobacterium tuberculosis H37Rv after 3 days by rapid direct susceptibility test. The note with it: 72 h. In kind it is functional.
A short description of data set [2]: Cytotoxicity against African green monkey Vero cells assessed as reduction in cell viability after 72 hrs by MTT assay. Type of data set: cell-based. The note with it: chlorocebus sabaeus.
Data set [3] in a line: Selectivity index, ratio of CC50 against African green monkey Vero cells to MIC for Mycobacterium tuberculosis H37Rv. In kind it is toxicity. The note with it: read-out: Selectivity Index.
Data set [4] relates to Mycobacterium tuberculosis. The experiment in a line: Potency index, ratio of rifampicin MIC to compound MIC for antimycobacterial activity against Mycobacterium tuberculosis H37Rv. In kind it is functional.
Data set [5] relates to Mycobacterium tuberculosis. The experiment in a line: Potency index, ratio of moxifloxacin MIC to compound MIC for antimycobacterial activity against Mycobacterium tuberculosis H37Rv. Type of data set: functional.
The nature of data set [6]: Tmax in ICR mouse at 50 mg/kg, po by HPLC analysis. Type of data set: ADME, organism-based. The note with it: in vivo.
Data set [7] can be described thus: AUC (0 to infinity) in ICR mouse at 50 mg/kg, po by HPLC analysis. Type of data set: ADME, organism-based. Also noted: dose 50 mg/kg, time infinity, route oral. The note with it: in vivo.
Data set [8] is described as follows: Elimination half life in ICR mouse at 50 mg/kg, po by HPLC analysis. In kind it is ADME, organism-based. The note with it: in vivo, read-out: beta t1/2 (converted).
Data set [9] in a line: Half life in mouse microsomes. In kind it is ADME, Microsome.
The nature of data set [10]: Cmax in ICR mouse at 50 mg/kg, po by HPLC analysis. Type of data set: ADME, organism-based. Also noted: dose 50 mg/kg, route oral. The note with it: in vivo.

As a reminder, the MIC is the smallest concentration in the dilution series that meets the test's criterion for growth inhibition. What is called CC50 is the concentration that lowers cell viability or growth by half. For `COc1c(N2C[C@H]3CCCN(Cc4cn(CCCN5C(=O)/C(=N/O)c6cc(C)ccc65)nn4)[C@H]3C2)c(F)cc2c(=O)c(C(=O)O)cn(C3CC3)c12`, the lowest concentration to inhibit growth in data set [1] (MIC) was 1.56 µg/mL (≈ 2.23 µM). In [2], the CC50 at 72 h is 8 µg/mL (≈ 11.4 µM). The selectivity ratio in data set [3] turned out to be 5.1.

The compound `COc1c(N2C[C@H]3CCCN(Cc4cn(CCCN5C(=O)C(=O)c6cc(C)ccc65)nn4)[C@H]3C2)c(F)cc2c(=O)c(C(=O)O)cn(C3CC3)c12` yielded a minimal inhibitory concentration (MIC) in data set [1] of 0.39 µg/mL (≈ 0.57 µM). In addition, in data set [2], the CC50 at 72 h was 32 µg/mL (≈ 46.8 µM). Further, the selectivity ratio in data set [3] worked out at 82.

Take `CO/N=C1/C(=O)N(CCCn2cc(CN3CCC[C@@H]4CN(c5c(F)cc6c(=O)c(C(=O)O)cn(C7CC7)c6c5OC)C[C@@H]43)nn2)c2ccccc21`: inhibition of growth in data set [1] (MIC) required 0.1 µg/mL (≈ 0.143 µM). The CC50 at 72 h in data set [2] turned out to be 16 µg/mL (≈ 22.9 µM). For the same compound, the selectivity ratio in data set [3] worked out at 160.

In data set [1], `CCO/N=C1/C(=O)N(CCCn2cc(CN3CCC[C@@H]4CN(c5c(F)cc6c(=O)c(C(=O)O)cn(C7CC7)c6c5OC)C[C@@H]43)nn2)c2ccccc21` showed an MIC of 0.39 µg/mL (≈ 0.547 µM). The CC50 at 72 h in data set [2] was 16 µg/mL (≈ 22.4 µM). In addition, in data set [3], the selectivity ratio amounted to 41.

Consider `COc1c(N2C[C@H]3CCCN(Cc4cn(CCCN5C(=O)C(=O)c6ccccc65)nn4)[C@H]3C2)c(F)cc2c(=O)c(C(=O)O)cn(C3CC3)c12`, for which the minimum inhibitory concentration (MIC) in data set [1] amounted to 1.56 µg/mL (≈ 2.33 µM). The CC50 at 72 h in data set [2] came out at 16 µg/mL (≈ 23.9 µM). Also, the selectivity ratio in [3] stood at 10.2.

For orientation: Tmax means the time from dosing to the highest level. A word on the AUC(0-inf): it is total exposure, with the tail of the curve extrapolated. For orientation: Cmax means the maximum level reached in the sampled fluid or tissue. As for `CO/N=C1/C(=O)N(CCCn2cc(CN3CCC[C@@H]4CN(c5c(F)cc6c(=O)c(C(=O)O)cn(C7CC7)c6c5OC)C[C@@H]43)nn2)c2ccc(F)cc21`, the Ratio in data set [4] and in data set [5] was 2 - 8 throughout. The Tmax in data set [6] was determined as 1.33 h. Further, the AUC(0-inf) in data set [7] amounted to 1240 ng·h/mL. Further, the half-life in [8] is 232 min; in data set [9], 13.7 min. In data set [10], this compound returned a Cmax of 243 ng/mL. The MIC in [1] worked out at 0.05 µg/mL (≈ 0.0698 µM). For the same compound, the CC50 at 72 h in data set [2] came to 4 µg/mL (≈ 5.58 µM). The selectivity ratio in data set [3] turned out to be 80.

In [1], `CCO/N=C1/C(=O)N(CCCn2cc(CN3CCC[C@@H]4CN(c5c(F)cc6c(=O)c(C(=O)O)cn(C7CC7)c6c5OC)C[C@@H]43)nn2)c2ccc(F)cc21` came in with an MIC of 0.2 µg/mL (≈ 0.274 µM). Besides, the CC50 at 72 h in data set [2] is 4 µg/mL (≈ 5.47 µM). Also, in [3], the selectivity ratio came to 20.

As for `COc1c(N2C[C@H]3CCCN(Cc4cn(CCCN5C(=O)C(=O)c6cc(F)ccc65)nn4)[C@H]3C2)c(F)cc2c(=O)c(C(=O)O)cn(C3CC3)c12`, the MIC in data set [1] amounted to 0.78 µg/mL (≈ 1.13 µM). Also, the 50% cytotoxic concentration (CC50) at 72 h in data set [2] was 16 µg/mL (≈ 23.3 µM). In addition, the selectivity ratio in data set [3] amounted to 20.5.

Regarding `COc1c(N2C[C@H]3CCCN(Cc4cn(CCCN5C(=O)/C(=N/O)c6ccccc65)nn4)[C@H]3C2)c(F)cc2c(=O)c(C(=O)O)cn(C3CC3)c12`, the minimum inhibitory concentration (MIC) in data set [1] turned out to be 0.78 µg/mL (≈ 1.14 µM). Besides, the CC50 at 72 h in [2] turned out to be 8 µg/mL (≈ 11.7 µM). In addition, the selectivity ratio in data set [3] stood at 10.2.

Compound `COc1c(N2C[C@H]3CCCN(Cc4cn(CCCN5C(=O)/C(=N/O)c6cc(F)ccc65)nn4)[C@H]3C2)c(F)cc2c(=O)c(C(=O)O)cn(C3CC3)c12` gave an MIC in data set [1] of 0.78 µg/mL (≈ 1.11 µM). Further, in [2], the CC50 at 72 h amounted to 2 µg/mL (≈ 2.85 µM). In addition, in data set [3], the selectivity ratio was 2.6.

Consider `CO/N=C1/C(=O)N(CCCn2cc(CN3CCC[C@@H]4CN(c5c(F)cc6c(=O)c(C(=O)O)cn(C7CC7)c6c5OC)C[C@@H]43)nn2)c2ccc(C)cc21`, for which, in data set [1], the MIC was 0.39 µg/mL (≈ 0.547 µM). Also, the CC50 at 72 h in data set [2] amounted to 8 µg/mL (≈ 11.2 µM). For the same compound, the selectivity ratio in data set [3] amounted to 20.5.

Take `CCO/N=C1/C(=O)N(CCCn2cc(CN3CCC[C@@H]4CN(c5c(F)cc6c(=O)c(C(=O)O)cn(C7CC7)c6c5OC)C[C@@H]43)nn2)c2ccc(C)cc21`: in data set [1], it took 0.39 µg/mL (≈ 0.537 µM) to inhibit growth (MIC). In addition, the CC50 at 72 h in [2] was 4 µg/mL (≈ 5.5 µM). The selectivity ratio in data set [3] came out at 10.2.

For `NNC(=O)c1ccncc1` [ISONIAZID], inhibition of growth in [1] (MIC) required 0.05 µg/mL (≈ 0.365 µM). Moreover, the CC50 at 72 h in data set [2] was 128 µg/mL (≈ 933 µM). Moreover, the selectivity ratio in data set [3] is 2560.

As for `COc1c(N2C[C@@H]3CCCN[C@@H]3C2)c(F)cc2c(=O)c(C(=O)O)cn(C3CC3)c12` [MOXIFLOXACIN], in data set [6], the Tmax came out at 1.08 h. The AUC(0-inf) in [7] was 7030 ng·h/mL. This compound also showed a Cmax in [10] of 2730 ng/mL. In [1], this compound returned an MIC of 0.1 µg/mL (≈ 0.249 µM). For the same compound, the CC50 at 72 h in data set [2] was found to be 128 µg/mL (≈ 319 µM).

As to `CO[C@H]1/C=C/O[C@@]2(C)Oc3c(C)c(O)c4c(O)c(c(/C=N/N5CCN(C)CC5)c(O)c4c3C2=O)NC(=O)/C(C)=C\C=C\[C@H](C)[C@H](O)[C@@H](C)[C@@H](O)[C@@H](C)[C@H](OC(C)=O)[C@@H]1C` [RIFAMPIN], 0.39 µg/mL (≈ 0.474 µM) was the least that counted as inhibitory in data set [1] (MIC). Also, the CC50 at 72 h in data set [2] stood at 512 µg/mL (≈ 622 µM). Moreover, in data set [3], the selectivity ratio was 1310.
